In brackets after ≈: the same amount, converted by molar mass.
Columns and labels:
Salmonella typhimurium [1] = assay: Mutagenic activity in Salmonella typhimurium TA100 at 1667 ug/plate in absence of liver S9 fraction; type: toxicity, organism-based; details: salmonella enterica subsp. enterica serovar typhimurium
Cytochrome P450 1A = target: T1, Cytochrome P450 1A (Homo sapiens, UniProt P04798+P05177); assay: Inhibition of CYP1A up to 25 uM; type: ADME
T1 sequence (P04798 whole entry): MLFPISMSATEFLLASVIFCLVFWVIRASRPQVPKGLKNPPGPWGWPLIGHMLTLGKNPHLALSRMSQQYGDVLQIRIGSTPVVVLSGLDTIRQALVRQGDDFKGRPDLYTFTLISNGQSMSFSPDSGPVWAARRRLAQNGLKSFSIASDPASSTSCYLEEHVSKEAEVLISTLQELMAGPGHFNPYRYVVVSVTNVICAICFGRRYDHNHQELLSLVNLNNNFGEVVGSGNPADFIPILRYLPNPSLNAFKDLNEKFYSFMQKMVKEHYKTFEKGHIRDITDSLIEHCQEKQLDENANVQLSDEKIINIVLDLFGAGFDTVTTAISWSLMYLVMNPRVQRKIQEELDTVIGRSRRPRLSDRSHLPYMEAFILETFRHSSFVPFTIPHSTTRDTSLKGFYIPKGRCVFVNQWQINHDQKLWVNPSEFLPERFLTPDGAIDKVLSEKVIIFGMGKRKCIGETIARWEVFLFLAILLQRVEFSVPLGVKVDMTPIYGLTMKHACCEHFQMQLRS
T1 sequence (P05177 whole entry): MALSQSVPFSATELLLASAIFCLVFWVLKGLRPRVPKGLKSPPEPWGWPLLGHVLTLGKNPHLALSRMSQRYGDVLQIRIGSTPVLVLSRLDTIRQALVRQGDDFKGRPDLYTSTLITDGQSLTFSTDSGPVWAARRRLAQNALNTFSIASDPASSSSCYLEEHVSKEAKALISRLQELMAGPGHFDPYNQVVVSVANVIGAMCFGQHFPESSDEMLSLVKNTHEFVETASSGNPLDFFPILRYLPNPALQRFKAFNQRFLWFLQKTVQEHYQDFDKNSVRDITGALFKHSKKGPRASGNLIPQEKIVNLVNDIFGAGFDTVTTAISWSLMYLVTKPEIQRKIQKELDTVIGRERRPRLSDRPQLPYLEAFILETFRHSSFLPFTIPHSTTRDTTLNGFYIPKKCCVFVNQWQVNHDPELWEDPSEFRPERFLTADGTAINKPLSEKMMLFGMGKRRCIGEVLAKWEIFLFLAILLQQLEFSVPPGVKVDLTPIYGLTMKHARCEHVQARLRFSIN

Cytochrome P450 2C9 = Cytochrome P450 2C9 (Homo sapiens, UniProt P11712); assay: Inhibition of CYP2C9 up to 25 uM; type: ADME
Chain of Cytochrome P450 2C9 (P11712 whole entry): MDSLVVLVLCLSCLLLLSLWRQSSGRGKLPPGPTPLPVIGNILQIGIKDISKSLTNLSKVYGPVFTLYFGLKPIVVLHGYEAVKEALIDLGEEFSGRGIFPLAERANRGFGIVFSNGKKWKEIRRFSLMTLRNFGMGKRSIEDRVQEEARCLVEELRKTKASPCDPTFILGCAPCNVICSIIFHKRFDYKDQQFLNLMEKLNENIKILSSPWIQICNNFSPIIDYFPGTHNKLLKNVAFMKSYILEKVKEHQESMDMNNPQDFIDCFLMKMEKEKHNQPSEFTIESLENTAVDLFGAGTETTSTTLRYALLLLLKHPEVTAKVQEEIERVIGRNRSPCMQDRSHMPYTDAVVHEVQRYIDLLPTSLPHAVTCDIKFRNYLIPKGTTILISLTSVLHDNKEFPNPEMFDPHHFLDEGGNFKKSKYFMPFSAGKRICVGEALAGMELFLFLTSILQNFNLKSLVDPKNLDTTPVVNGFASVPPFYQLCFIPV

[2] = Thermodynamic solubility of the compound; type: physicochemical; details: read-out: Therm_solubility
[3] = target: Phosphatidylinositol 4,5-bisphosphate 3-kinase catalytic subunit beta isoform (Homo sapiens, UniProt P42338); assay: Inhibition of PI3Kbeta by high throughput chemoproteomics binding assay
Salmonella typhimurium [4] = assay: Mutagenic activity in Salmonella typhimurium TA1537 at 1667 ug/plate in presence of liver S9 fraction; type: toxicity, organism-based; details: salmonella enterica subsp. enterica serovar typhimurium
Homo sapiens [5] = species: Homo sapiens; assay: Selectivity ratio of IC50 for PI3Kbeta to IC50 for PI3Kgamma
Caco-2 = assay: Permeability of the compound in human Caco2 cells; type: ADME, cell-based
Salmonella typhimurium [6] = assay: Mutagenic activity in Salmonella typhimurium TA98 at 1667 ug/plate in presence of liver S9 fraction; type: toxicity, organism-based; details: salmonella enterica subsp. enterica serovar typhimurium
Homo sapiens [7] = species: Homo sapiens; assay: Selectivity ratio of IC50 for PI3Kdelta to IC50 for PI3Kgamma
Cytochrome P450 2D6 = Cytochrome P450 2D6 (Homo sapiens, UniProt P10635); assay: Inhibition of CYP2D6 up to 25 uM; type: ADME
Chain of Cytochrome P450 2D6 (P10635 whole entry): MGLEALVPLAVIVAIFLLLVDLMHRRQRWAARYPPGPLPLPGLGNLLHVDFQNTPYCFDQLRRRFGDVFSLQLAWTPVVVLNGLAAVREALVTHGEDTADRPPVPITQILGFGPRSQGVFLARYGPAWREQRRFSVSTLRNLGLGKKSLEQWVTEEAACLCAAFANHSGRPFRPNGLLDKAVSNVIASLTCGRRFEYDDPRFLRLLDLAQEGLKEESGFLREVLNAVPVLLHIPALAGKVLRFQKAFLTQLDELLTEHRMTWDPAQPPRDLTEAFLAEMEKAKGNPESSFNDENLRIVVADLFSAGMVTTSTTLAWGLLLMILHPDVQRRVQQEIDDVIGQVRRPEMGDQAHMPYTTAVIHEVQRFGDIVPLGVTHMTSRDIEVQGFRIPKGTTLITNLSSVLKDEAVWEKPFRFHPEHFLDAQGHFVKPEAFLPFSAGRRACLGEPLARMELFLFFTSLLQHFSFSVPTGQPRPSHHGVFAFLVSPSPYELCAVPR

Cytochrome P450 2C19 = Cytochrome P450 2C19 (Homo sapiens, UniProt P33261); assay: Inhibition of CYP2C19 up to 25 uM; type: ADME
Chain of Cytochrome P450 2C19 (P33261 whole entry, canonical isoform): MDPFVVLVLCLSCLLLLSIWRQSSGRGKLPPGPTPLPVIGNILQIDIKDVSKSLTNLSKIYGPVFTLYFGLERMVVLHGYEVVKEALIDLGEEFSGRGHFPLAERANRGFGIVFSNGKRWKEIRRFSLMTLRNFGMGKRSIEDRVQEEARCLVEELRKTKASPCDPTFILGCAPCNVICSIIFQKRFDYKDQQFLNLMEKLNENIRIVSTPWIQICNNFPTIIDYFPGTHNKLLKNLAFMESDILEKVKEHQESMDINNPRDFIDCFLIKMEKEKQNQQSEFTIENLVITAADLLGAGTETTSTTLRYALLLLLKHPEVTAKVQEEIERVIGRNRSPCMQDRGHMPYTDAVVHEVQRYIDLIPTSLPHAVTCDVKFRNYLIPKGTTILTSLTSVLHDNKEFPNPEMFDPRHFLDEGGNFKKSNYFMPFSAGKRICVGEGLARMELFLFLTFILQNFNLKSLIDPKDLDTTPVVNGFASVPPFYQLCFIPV

[8] = target: Phosphatidylinositol 4,5-bisphosphate 3-kinase catalytic subunit alpha isoform (Homo sapiens, UniProt P42336); assay: Inhibition of PI3Kalpha by high throughput chemoproteomics binding assay
Salmonella typhimurium [9] = assay: Mutagenic activity in Salmonella typhimurium TA98 at 1667 ug/plate in absence of liver S9 fraction; type: toxicity, organism-based; details: salmonella enterica subsp. enterica serovar typhimurium
Salmonella typhimurium [10] = assay: Mutagenic activity in Salmonella typhimurium TA100 at 1667 ug/plate in presence of liver S9 fraction; type: toxicity, organism-based; details: salmonella enterica subsp. enterica serovar typhimurium
Cytochrome P450 3A4 = Cytochrome P450 3A4 (Homo sapiens, UniProt P08684); assay: Inhibition of CYP3A4 up to 25 uM; type: ADME
Chain of Cytochrome P450 3A4 (P08684 whole entry): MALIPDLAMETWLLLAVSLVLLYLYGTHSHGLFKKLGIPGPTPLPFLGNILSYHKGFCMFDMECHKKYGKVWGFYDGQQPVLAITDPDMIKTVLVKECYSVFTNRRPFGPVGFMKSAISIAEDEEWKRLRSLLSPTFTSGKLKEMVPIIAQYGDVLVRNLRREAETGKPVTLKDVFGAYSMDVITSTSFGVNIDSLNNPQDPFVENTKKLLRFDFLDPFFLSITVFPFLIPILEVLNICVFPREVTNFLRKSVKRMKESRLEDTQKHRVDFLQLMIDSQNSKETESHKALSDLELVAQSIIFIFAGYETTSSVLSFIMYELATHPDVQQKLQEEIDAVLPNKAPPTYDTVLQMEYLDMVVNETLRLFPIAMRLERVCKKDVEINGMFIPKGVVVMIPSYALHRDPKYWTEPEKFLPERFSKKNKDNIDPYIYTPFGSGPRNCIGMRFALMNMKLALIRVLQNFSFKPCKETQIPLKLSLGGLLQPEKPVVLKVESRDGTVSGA

Mus musculus = assay: Antiarthritic activity in DBA/B10 mouse collagen-induced arthritis model assessed as reduction of clinical score at 10 mg/kg, po administered twice per day for every 12 hrs; type: functional; parameters: scale not given: the % may be the effect or the level left
[11] = Clearance in rat at 0.2 mg/kg, iv and 10 mg/kg, po; type: ADME, organism-based; details: in vivo
[12] = Oral bioavailability in rat at 10 mg/kg; type: ADME, organism-based; details: in vivo
[13] = target: Voltage-gated inwardly rectifying potassium channel KCNH2 (Homo sapiens, UniProt Q12809); assay: Inhibition of human ERG up to 100 uM by Q-patch assay
Chain of Voltage-gated inwardly rectifying potassium channel KCNH2 (Q12809 whole entry): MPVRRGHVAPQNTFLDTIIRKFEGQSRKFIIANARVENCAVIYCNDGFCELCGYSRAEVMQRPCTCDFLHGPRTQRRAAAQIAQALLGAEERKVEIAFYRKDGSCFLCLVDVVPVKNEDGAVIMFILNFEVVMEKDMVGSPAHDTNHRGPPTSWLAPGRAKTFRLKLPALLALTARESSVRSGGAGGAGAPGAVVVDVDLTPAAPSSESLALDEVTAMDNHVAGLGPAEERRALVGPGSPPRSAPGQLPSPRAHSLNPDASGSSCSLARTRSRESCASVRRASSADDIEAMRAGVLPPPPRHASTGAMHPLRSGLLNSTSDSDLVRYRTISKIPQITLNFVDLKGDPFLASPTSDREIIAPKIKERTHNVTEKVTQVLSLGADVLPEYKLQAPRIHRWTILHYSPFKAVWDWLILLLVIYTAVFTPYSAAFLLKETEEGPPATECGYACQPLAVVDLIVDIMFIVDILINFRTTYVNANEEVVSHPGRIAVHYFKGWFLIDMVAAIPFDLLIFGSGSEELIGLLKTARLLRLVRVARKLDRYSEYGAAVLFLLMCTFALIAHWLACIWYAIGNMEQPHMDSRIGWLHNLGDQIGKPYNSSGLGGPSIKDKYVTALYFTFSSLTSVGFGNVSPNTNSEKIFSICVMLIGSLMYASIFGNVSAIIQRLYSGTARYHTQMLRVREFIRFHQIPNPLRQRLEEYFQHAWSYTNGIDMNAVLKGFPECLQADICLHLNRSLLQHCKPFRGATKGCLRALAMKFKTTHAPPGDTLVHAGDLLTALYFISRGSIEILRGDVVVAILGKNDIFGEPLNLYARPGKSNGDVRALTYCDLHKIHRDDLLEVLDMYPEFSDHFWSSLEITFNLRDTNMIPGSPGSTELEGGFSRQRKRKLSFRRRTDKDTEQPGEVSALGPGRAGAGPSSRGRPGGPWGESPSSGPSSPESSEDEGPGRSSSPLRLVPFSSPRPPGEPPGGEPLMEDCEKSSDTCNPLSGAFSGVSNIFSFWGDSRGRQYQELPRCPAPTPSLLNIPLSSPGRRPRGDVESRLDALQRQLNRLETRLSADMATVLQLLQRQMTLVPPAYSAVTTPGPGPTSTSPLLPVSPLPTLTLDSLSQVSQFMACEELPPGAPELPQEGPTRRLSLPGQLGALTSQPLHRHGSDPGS

Salmonella typhimurium [14] = assay: Mutagenic activity in Salmonella typhimurium TA1537 at 1667 ug/plate in absence of liver S9 fraction; type: toxicity, organism-based; details: salmonella enterica subsp. enterica serovar typhimurium
[15] = Clearance in rat at 1 mg/kg, iv and 5 mg/kg, po; type: ADME, organism-based; details: in vivo
[16] = Oral bioavailability in rat at 5 mg/kg; type: ADME, organism-based; details: in vivo
[17] = Half life in rat microsomes; type: ADME, Microsome
[18] = target: Phosphatidylinositol 4,5-bisphosphate 3-kinase catalytic subunit gamma isoform (Homo sapiens, UniProt P48736); assay: Inhibition of PI3Kgamma assessed as inhibition of C5a-induced AKT phosphorylation at Ser473 by cell based assay
Chain of Phosphatidylinositol 4,5-bisphosphate 3-kinase catalytic subunit gamma isoform (P48736 whole entry, canonical isoform): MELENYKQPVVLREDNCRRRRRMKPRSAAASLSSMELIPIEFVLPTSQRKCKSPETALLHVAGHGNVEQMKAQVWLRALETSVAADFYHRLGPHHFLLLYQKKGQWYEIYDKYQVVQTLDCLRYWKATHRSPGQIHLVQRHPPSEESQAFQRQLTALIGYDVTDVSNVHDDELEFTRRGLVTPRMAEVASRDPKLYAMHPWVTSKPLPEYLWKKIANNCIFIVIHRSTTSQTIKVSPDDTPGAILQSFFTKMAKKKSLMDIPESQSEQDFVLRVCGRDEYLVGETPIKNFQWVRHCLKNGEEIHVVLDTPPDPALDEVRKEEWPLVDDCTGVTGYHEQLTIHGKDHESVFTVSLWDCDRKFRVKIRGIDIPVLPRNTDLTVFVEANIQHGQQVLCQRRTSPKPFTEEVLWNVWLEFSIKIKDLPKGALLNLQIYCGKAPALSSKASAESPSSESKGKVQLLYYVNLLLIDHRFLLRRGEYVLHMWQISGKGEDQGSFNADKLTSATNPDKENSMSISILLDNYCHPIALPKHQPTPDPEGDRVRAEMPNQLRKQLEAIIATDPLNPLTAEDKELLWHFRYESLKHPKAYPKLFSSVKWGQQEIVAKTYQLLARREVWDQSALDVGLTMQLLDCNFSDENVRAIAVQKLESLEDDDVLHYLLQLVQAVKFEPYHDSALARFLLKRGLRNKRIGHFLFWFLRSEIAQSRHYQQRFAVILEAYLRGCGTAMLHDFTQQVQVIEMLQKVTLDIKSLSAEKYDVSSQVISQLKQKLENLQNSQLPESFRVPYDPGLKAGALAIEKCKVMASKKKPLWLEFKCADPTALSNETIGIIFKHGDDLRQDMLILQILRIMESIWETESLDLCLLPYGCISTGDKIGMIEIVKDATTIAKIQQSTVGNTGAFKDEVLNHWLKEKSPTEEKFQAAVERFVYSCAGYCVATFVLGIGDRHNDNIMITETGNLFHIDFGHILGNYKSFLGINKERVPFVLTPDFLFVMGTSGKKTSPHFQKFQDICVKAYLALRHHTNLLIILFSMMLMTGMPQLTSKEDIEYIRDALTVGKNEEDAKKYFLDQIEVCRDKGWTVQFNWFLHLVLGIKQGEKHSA

[19] = Half life in mouse microsomes; type: ADME, Microsome
[20] = Half life in human microsomes; type: ADME, Microsome

Q: For `CC(C)(C)NS(=O)(=O)c1cncc(-c2cc(F)c3nc(N)nn3c2)c1`, which Activity (Salmonella typhimurium [1]) is on record?
A: Its Activity is “Non-toxic”.

Q: What about the “inhibition (INH)” value (Cytochrome P450 1A) of the same molecule?
A: Its value is “Not Active”.

Q: And the “inhibition (INH)” value (Cytochrome P450 2C9)?
A: The value was “Not Active”.

Q: And the solubility thermodynamic [2]?
A: The solubility thermodynamic was less than 5 µg/mL.

Q: What about the IC50 [3] of the same molecule?
A: The IC50 was 1260 nM.

Q: What about the Activity (Salmonella typhimurium [4]) of the same molecule?
A: Its Activity is “Non-toxic”.

Q: What about the Ratio IC50 (Homo sapiens [5]) of the same molecule?
A: Its Ratio IC50 is 100.

Q: What about the permeability (Caco-2) of the same molecule?
A: Its permeability is “permeable”.

Q: And the Activity (Salmonella typhimurium [6])?
A: Its Activity is “Non-toxic”.

Q: And the Ratio IC50 (Homo sapiens [7])?
A: The Ratio IC50 was 100.

Q: What about the “inhibition (INH)” value (Cytochrome P450 2D6) of the same molecule?
A: Its value is “Not Active”.

Q: What about the “inhibition (INH)” value (Cytochrome P450 2C19) of the same molecule?
A: Its value is “Not Active”.

Q: And the IC50 [8]?
A: Its IC50 is greater than 10000 nM.

Q: What about the Activity (Salmonella typhimurium [9]) of the same molecule?
A: The Activity was “Non-toxic”.

Q: What about the Activity (Salmonella typhimurium [10]) of the same molecule?
A: The Activity was “Non-toxic”.

Q: What about the “inhibition (INH)” value (Cytochrome P450 3A4) of the same molecule?
A: The value was “Not Active”.

Q: What about the Activity (Mus musculus) of the same molecule?
A: Its Activity is 38%.

Q: What about the clearance [11] of the same molecule?
A: Its clearance is 14 mL/min/kg.

Q: What about the bioavailability [12] of the same molecule?
A: The bioavailability was 37%.

Q: And the “inhibition (INH)” value [13]?
A: The value was “Not Active”.

Q: And the Activity (Salmonella typhimurium [14])?
A: Its Activity is “Non-toxic”.

Q: For `CC(C)(C)NS(=O)(=O)c1cncc(-c2ccc3nc(N)nn3c2)c1`, which Activity (Salmonella typhimurium [1]) is on record?
A: Its Activity is “Non-toxic”.

Q: And the clearance [15]?
A: The clearance was 11.5 mL/min/kg.

Q: What about the “inhibition (INH)” value (Cytochrome P450 1A) of the same molecule?
A: The value was “Not Active”.

Q: And the “inhibition (INH)” value (Cytochrome P450 2C9)?
A: The value was “Not Active”.

Q: And the bioavailability [16]?
A: The bioavailability was 88%.

Q: What about the solubility thermodynamic [2] of the same molecule?
A: Its solubility thermodynamic is 9 µg/mL (≈ 26 µM).

Q: What about the Activity (Salmonella typhimurium [4]) of the same molecule?
A: The Activity was “Non-toxic”.

Q: And the permeability (Caco-2)?
A: Its permeability is “permeable”.

Q: What about the Activity (Salmonella typhimurium [6]) of the same molecule?
A: The Activity was “Non-toxic”.

Q: And the half-life [17]?
A: The half-life was greater than 45 min.

Q: What about the “inhibition (INH)” value (Cytochrome P450 2D6) of the same molecule?
A: Its value is “Not Active”.

Q: What about the “inhibition (INH)” value (Cytochrome P450 2C19) of the same molecule?
A: Its value is “Not Active”.

Q: And the Activity (Salmonella typhimurium [9])?
A: Its Activity is “Non-toxic”.

Q: What about the Activity (Salmonella typhimurium [10]) of the same molecule?
A: Its Activity is “Non-toxic”.

Q: And the “inhibition (INH)” value (Cytochrome P450 3A4)?
A: The value was “Not Active”.

Q: And the Activity (Mus musculus)?
A: Its Activity is 53%.

Q: What about the IC50 [18] of the same molecule?
A: Its IC50 is 2000 nM.

Q: And the half-life [19]?
A: The half-life was greater than 45 min.

Q: What about the half-life [20] of the same molecule?
A: Its half-life is greater than 45 min.

Q: What about the “inhibition (INH)” value [13] of the same molecule?
A: Its value is “Not Active”.

Q: And the Activity (Salmonella typhimurium [14])?
A: Its Activity is “Non-toxic”.

— ChEMBL document CHEMBL2062454, “SAR studies around a series of triazolopyridines as potent and selective PI3Kγ inhibitors” (Bioorg Med Chem Lett, 2012)
